# Test results as given in article PMC9516332 (Frontiers in Oncology, 2022).
# Where two headings read alike, the source gives them in different places.
# Assays:
# 134 cancer cell lines = test: Cell viability assay (ATPlite, 72 hours), IC50 on cancer cell line panel
# AP-1060 (ETV6-NTRK3) = test: Cell viability assay; conditions: read-out: IC50 in cell proliferation assay
smiles,measurement,setting,value
CC#CC(=O)N1CCC[C@H]1c1nc(-c2ccc(C(=O)Nc3ccccn3)cc2)c2c(N)nccn12 [acalabrutinib],IC50,"134 cancer cell lines; HEC-6, read-out: IC50 in cell proliferation assay",> 31.6 µM
same,IC50,"134 cancer cell lines; Homo sapiens, 769-P, read-out: IC50 in cell proliferation assay",> 31.6 µM
same,IC50,"134 cancer cell lines; Homo sapiens, 786-0, read-out: IC50 in cell proliferation assay",> 31.6 µM
same,IC50,"134 cancer cell lines; Homo sapiens, A 172, read-out: IC50 in cell proliferation assay",> 31.6 µM
same,IC50,"134 cancer cell lines; Homo sapiens, A204, read-out: IC50 in cell proliferation assay",> 31.6 µM
same,IC50,"134 cancer cell lines; Homo sapiens, A498, read-out: IC50 in cell proliferation assay",> 31.6 µM
same,IC50,"134 cancer cell lines; Homo sapiens, A549, read-out: IC50 in cell proliferation assay",> 31.6 µM
same,IC50,"134 cancer cell lines; Homo sapiens, A704, read-out: IC50 in cell proliferation assay",> 31.6 µM
same,IC50,"134 cancer cell lines; Homo sapiens, A-375, read-out: IC50 in cell proliferation assay",> 31.6 µM
same,IC50,"134 cancer cell lines; Homo sapiens, A-427, read-out: IC50 in cell proliferation assay",> 31.6 µM
same,IC50,"134 cancer cell lines; Homo sapiens, ACHN, read-out: IC50 in cell proliferation assay",12.6 µM
same,IC50,"134 cancer cell lines; Homo sapiens, AN3-CA, read-out: IC50 in cell proliferation assay",> 31.6 µM
same,IC50,"134 cancer cell lines; Homo sapiens, ASPC1, read-out: IC50 in cell proliferation assay",> 31.6 µM
same,IC50,"134 cancer cell lines; Homo sapiens, AU565, read-out: IC50 in cell proliferation assay",0.685 µM
same,IC50,"134 cancer cell lines; Homo sapiens, BT-20, read-out: IC50 in cell proliferation assay",> 31.6 µM
same,IC50,"134 cancer cell lines; Homo sapiens, BT-474, read-out: IC50 in cell proliferation assay",0.594 µM
same,IC50,"134 cancer cell lines; Homo sapiens, BT-549, read-out: IC50 in cell proliferation assay",> 31.6 µM
same,IC50,"134 cancer cell lines; Homo sapiens, BXPC-3, read-out: IC50 in cell proliferation assay",> 31.6 µM
same,IC50,"134 cancer cell lines; Homo sapiens, C-33-A, read-out: IC50 in cell proliferation assay",2.01 µM
same,IC50,"134 cancer cell lines; Homo sapiens, CAL-27, read-out: IC50 in cell proliferation assay",> 31.6 µM
same,IC50,"134 cancer cell lines; Homo sapiens, CCF-STTG1, read-out: IC50 in cell proliferation assay",> 31.6 µM
same,IC50,"134 cancer cell lines; Homo sapiens, CCRF-CEM, read-out: IC50 in cell proliferation assay",> 31.6 µM
same,IC50,"134 cancer cell lines; Homo sapiens, COLO 205, read-out: IC50 in cell proliferation assay",> 31.6 µM
same,IC50,"134 cancer cell lines; Homo sapiens, COLO-829, read-out: IC50 in cell proliferation assay",> 31.6 µM
same,IC50,"134 cancer cell lines; Homo sapiens, DLD-1, read-out: IC50 in cell proliferation assay",> 31.6 µM
same,IC50,"134 cancer cell lines; Homo sapiens, DU-145, read-out: IC50 in cell proliferation assay",> 31.6 µM
same,IC50,"134 cancer cell lines; Homo sapiens, DU-4475, read-out: IC50 in cell proliferation assay",> 31.6 µM
same,IC50,"134 cancer cell lines; Homo sapiens, Daoy, read-out: IC50 in cell proliferation assay",> 31.6 µM
same,IC50,"134 cancer cell lines; Homo sapiens, DoTc2-4510, read-out: IC50 in cell proliferation assay",9.83 µM
same,IC50,"134 cancer cell lines; Homo sapiens, EOL1, read-out: IC50 in cell proliferation assay",25.8 µM
same,IC50,"134 cancer cell lines; Homo sapiens, FaDu, read-out: IC50 in cell proliferation assay",28.5 µM
same,IC50,"134 cancer cell lines; Homo sapiens, G-361, read-out: IC50 in cell proliferation assay",> 31.6 µM
same,IC50,"134 cancer cell lines; Homo sapiens, HCC827, read-out: IC50 in cell proliferation assay",> 31.6 µM
same,IC50,"134 cancer cell lines; Homo sapiens, HCC4006, read-out: IC50 in cell proliferation assay",17.4 µM
same,IC50,"134 cancer cell lines; Homo sapiens, HCT-15, read-out: IC50 in cell proliferation assay",> 31.6 µM
same,IC50,"134 cancer cell lines; Homo sapiens, HCT-116, read-out: IC50 in cell proliferation assay",> 31.6 µM
same,IC50,"134 cancer cell lines; Homo sapiens, HEC-1, read-out: IC50 in cell proliferation assay",> 31.6 µM
same,IC50,"134 cancer cell lines; Homo sapiens, HEC-1B, read-out: IC50 in cell proliferation assay",> 31.6 µM
same,IC50,"134 cancer cell lines; Homo sapiens, HL-60, read-out: IC50 in cell proliferation assay",> 31.6 µM
same,IC50,"134 cancer cell lines; Homo sapiens, HT, read-out: IC50 in cell proliferation assay",> 31.6 µM
same,IC50,"134 cancer cell lines; Homo sapiens, HT-1080, read-out: IC50 in cell proliferation assay",> 31.6 µM
same,IC50,"134 cancer cell lines; Homo sapiens, Hs746T, read-out: IC50 in cell proliferation assay",9.68 µM
same,IC50,"134 cancer cell lines; Homo sapiens, Hs-578T, read-out: IC50 in cell proliferation assay",> 31.6 µM
same,IC50,"134 cancer cell lines; Homo sapiens, HuTu80, read-out: IC50 in cell proliferation assay",> 31.6 µM
same,IC50,"134 cancer cell lines; Homo sapiens, J82, read-out: IC50 in cell proliferation assay",> 31.6 µM
same,IC50,"134 cancer cell lines; Homo sapiens, Jurkat E6.1, read-out: IC50 in cell proliferation assay",29.6 µM
same,IC50,"134 cancer cell lines; Homo sapiens, K562, read-out: IC50 in cell proliferation assay",> 31.6 µM
same,IC50,"134 cancer cell lines; Homo sapiens, KATO III, read-out: IC50 in cell proliferation assay",31.3 µM
same,IC50,"134 cancer cell lines; Homo sapiens, KG-1, read-out: IC50 in cell proliferation assay",> 31.6 µM
same,IC50,"134 cancer cell lines; Homo sapiens, KLE, read-out: IC50 in cell proliferation assay",> 31.6 µM
same,IC50,"134 cancer cell lines; Homo sapiens, KMS-11, read-out: IC50 in cell proliferation assay",> 31.6 µM
same,IC50,"134 cancer cell lines; Homo sapiens, KU812, read-out: IC50 in cell proliferation assay",> 31.6 µM
same,IC50,"134 cancer cell lines; Homo sapiens, Kasumi 1, read-out: IC50 in cell proliferation assay",> 31.6 µM
same,IC50,"134 cancer cell lines; Homo sapiens, LC-2-ad, read-out: IC50 in cell proliferation assay",19.6 µM
same,IC50,"134 cancer cell lines; Homo sapiens, LNCaP-Clone-FGC, read-out: IC50 in cell proliferation assay",> 31.6 µM
same,IC50,"134 cancer cell lines; Homo sapiens, LS174T, read-out: IC50 in cell proliferation assay",> 31.6 µM
same,IC50,"134 cancer cell lines; Homo sapiens, LS-411N, read-out: IC50 in cell proliferation assay",> 31.6 µM
same,IC50,"134 cancer cell lines; Homo sapiens, LoVo, read-out: IC50 in cell proliferation assay",> 31.6 µM
same,IC50,"134 cancer cell lines; Homo sapiens, MCF7, read-out: IC50 in cell proliferation assay",> 31.6 µM
same,IC50,"134 cancer cell lines; Homo sapiens, MDA-MB-231, read-out: IC50 in cell proliferation assay",> 31.6 µM
same,IC50,"134 cancer cell lines; Homo sapiens, MDA-MB-453, read-out: IC50 in cell proliferation assay",> 31.6 µM
same,IC50,"134 cancer cell lines; Homo sapiens, MDA-MB-468, read-out: IC50 in cell proliferation assay",> 31.6 µM
same,IC50,"134 cancer cell lines; Homo sapiens, MG-63, read-out: IC50 in cell proliferation assay",> 31.6 µM
same,IC50,"134 cancer cell lines; Homo sapiens, MIA PaCa-2, read-out: IC50 in cell proliferation assay",> 31.6 µM
same,IC50,"134 cancer cell lines; Homo sapiens, MKN-45, read-out: IC50 in cell proliferation assay",> 31.6 µM
same,IC50,"134 cancer cell lines; Homo sapiens, MOLM-13, read-out: IC50 in cell proliferation assay",9.38 µM
same,IC50,"134 cancer cell lines; Homo sapiens, MOLT-4, read-out: IC50 in cell proliferation assay",> 31.6 µM
same,IC50,"134 cancer cell lines; Homo sapiens, MV4-11, read-out: IC50 in cell proliferation assay",> 31.6 µM
same,IC50,"134 cancer cell lines; Homo sapiens, MeWo, read-out: IC50 in cell proliferation assay",> 31.6 µM
same,IC50,"134 cancer cell lines; Homo sapiens, NCCIT, read-out: IC50 in cell proliferation assay",> 31.6 µM
same,IC50,"134 cancer cell lines; Homo sapiens, NCI-H82, read-out: IC50 in cell proliferation assay",> 31.6 µM
same,IC50,"134 cancer cell lines; Homo sapiens, NCI-H460, read-out: IC50 in cell proliferation assay",> 31.6 µM
same,IC50,"134 cancer cell lines; Homo sapiens, NCI-H661, read-out: IC50 in cell proliferation assay",11 µM
same,IC50,"134 cancer cell lines; Homo sapiens, NCI-H716, read-out: IC50 in cell proliferation assay",> 31.6 µM
same,IC50,"134 cancer cell lines; Homo sapiens, NCI-H1650, read-out: IC50 in cell proliferation assay",> 31.6 µM
same,IC50,"134 cancer cell lines; Homo sapiens, NCI-H1975, read-out: IC50 in cell proliferation assay",> 31.6 µM
same,IC50,"134 cancer cell lines; Homo sapiens, NCI-H2228, read-out: IC50 in cell proliferation assay",> 31.6 µM
same,IC50,"134 cancer cell lines; Homo sapiens, OVCAR-3, read-out: IC50 in cell proliferation assay",> 31.6 µM
same,IC50,"134 cancer cell lines; Homo sapiens, PFSK-1, read-out: IC50 in cell proliferation assay",> 31.6 µM
same,IC50,"134 cancer cell lines; Homo sapiens, RL95-2, read-out: IC50 in cell proliferation assay",> 31.6 µM
same,IC50,"134 cancer cell lines; Homo sapiens, RPMI-7951, read-out: IC50 in cell proliferation assay",> 31.6 µM
same,IC50,"134 cancer cell lines; Homo sapiens, RS4-11, read-out: IC50 in cell proliferation assay",> 31.6 µM
same,IC50,"134 cancer cell lines; Homo sapiens, Rec1, read-out: IC50 in cell proliferation assay",0.021 µM
same,IC50,"134 cancer cell lines; Homo sapiens, SHP77, read-out: IC50 in cell proliferation assay",> 31.6 µM
same,IC50,"134 cancer cell lines; Homo sapiens, SK-BR-3, read-out: IC50 in cell proliferation assay",0.409 µM
same,IC50,"134 cancer cell lines; Homo sapiens, SK-N-AS, read-out: IC50 in cell proliferation assay",> 31.6 µM
same,IC50,"134 cancer cell lines; Homo sapiens, SK-N-FI, read-out: IC50 in cell proliferation assay",> 31.6 µM
same,IC50,"134 cancer cell lines; Homo sapiens, SK-N-MC, read-out: IC50 in cell proliferation assay",> 31.6 µM
same,IC50,"134 cancer cell lines; Homo sapiens, SK-N-SH, read-out: IC50 in cell proliferation assay",9.87 µM
same,IC50,"134 cancer cell lines; Homo sapiens, SNU-5, read-out: IC50 in cell proliferation assay",> 31.6 µM
same,IC50,"134 cancer cell lines; Homo sapiens, SNU-16, read-out: IC50 in cell proliferation assay",> 31.6 µM
same,IC50,"134 cancer cell lines; Homo sapiens, SNU-C2B, read-out: IC50 in cell proliferation assay",> 31.6 µM
same,IC50,"134 cancer cell lines; Homo sapiens, SU-DHL-1, read-out: IC50 in cell proliferation assay",> 31.6 µM
same,IC50,"134 cancer cell lines; Homo sapiens, SU-DHL-6, read-out: IC50 in cell proliferation assay",0.003 µM
same,IC50,"134 cancer cell lines; Homo sapiens, SUP-T1, read-out: IC50 in cell proliferation assay",> 31.6 µM
same,IC50,"134 cancer cell lines; Homo sapiens, SW48, read-out: IC50 in cell proliferation assay",4.43 µM
same,IC50,"134 cancer cell lines; Homo sapiens, SW480, read-out: IC50 in cell proliferation assay",> 31.6 µM
same,IC50,"134 cancer cell lines; Homo sapiens, SW626, read-out: IC50 in cell proliferation assay",> 31.6 µM
same,IC50,"134 cancer cell lines; Homo sapiens, SW780, read-out: IC50 in cell proliferation assay",> 31.6 µM
same,IC50,"134 cancer cell lines; Homo sapiens, SW837, read-out: IC50 in cell proliferation assay",> 31.6 µM
same,IC50,"134 cancer cell lines; Homo sapiens, SW872, read-out: IC50 in cell proliferation assay",> 31.6 µM
same,IC50,"134 cancer cell lines; Homo sapiens, SW900, read-out: IC50 in cell proliferation assay",> 31.6 µM
same,IC50,"134 cancer cell lines; Homo sapiens, SW948, read-out: IC50 in cell proliferation assay",> 31.6 µM
same,IC50,"134 cancer cell lines; Homo sapiens, SW982, read-out: IC50 in cell proliferation assay",> 31.6 µM
same,IC50,"134 cancer cell lines; Homo sapiens, SW-620, read-out: IC50 in cell proliferation assay",> 31.6 µM
same,IC50,"134 cancer cell lines; Homo sapiens, T98G, read-out: IC50 in cell proliferation assay",> 31.6 µM
same,IC50,"134 cancer cell lines; Homo sapiens, TCC-SUP, read-out: IC50 in cell proliferation assay",> 31.6 µM
same,IC50,"134 cancer cell lines; Homo sapiens, THP-1, read-out: IC50 in cell proliferation assay",> 31.6 µM
same,IC50,"134 cancer cell lines; Homo sapiens, U2OS, read-out: IC50 in cell proliferation assay",> 31.6 µM
same,IC50,"134 cancer cell lines; Homo sapiens, U-87 MG, read-out: IC50 in cell proliferation assay",> 31.6 µM
same,IC50,"134 cancer cell lines; Homo sapiens, U-118-MG, read-out: IC50 in cell proliferation assay",> 31.6 µM
same,IC50,"134 cancer cell lines; Homo sapiens, UMUC3, read-out: IC50 in cell proliferation assay",> 31.6 µM
same,IC50,"134 cancer cell lines; Hs766T, read-out: IC50 in cell proliferation assay",> 31.6 µM
same,IC50,"134 cancer cell lines; L-82, read-out: IC50 in cell proliferation assay",> 31.6 µM
same,IC50,"134 cancer cell lines; Rh30, read-out: IC50 in cell proliferation assay",> 31.6 µM
same,IC50,AP-1060 (ETV6-NTRK3),> 31.6 µM
